Assay results taken from ChEMBL document CHEMBL1201862, “PubChem BioAssay data set” (2004).
Activity calls are given as the source filed them.

How the values were obtained:
[1] = molecular target: Peroxisome proliferator-activated receptor gamma/Nuclear receptor coactivator 3 (Homo sapiens, UniProt P37231); assay type: functional;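 also: agonist potency for raising coactivator recruitment to the receptor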
[2] = molecular target: Peroxisome proliferator-activated receptor gamma/Nuclear receptor coactivator 2 (Homo sapiens, UniProt P37231); assay type: functional;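 also: agonist potency for raising coactivator recruitment to the receptor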
[3] = molecular target: Peroxisome proliferator-activated receptor gamma/Nuclear receptor coactivator 1 (Homo sapiens, UniProt P37231); assay type: functional;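 also: agonist potency as compounds enhance coactivator SRC-1 recruitment to PPARgamma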
Sequence of Peroxisome proliferator-activated receptor gamma/Nuclear receptor coactivator 1 (P37231 whole entry): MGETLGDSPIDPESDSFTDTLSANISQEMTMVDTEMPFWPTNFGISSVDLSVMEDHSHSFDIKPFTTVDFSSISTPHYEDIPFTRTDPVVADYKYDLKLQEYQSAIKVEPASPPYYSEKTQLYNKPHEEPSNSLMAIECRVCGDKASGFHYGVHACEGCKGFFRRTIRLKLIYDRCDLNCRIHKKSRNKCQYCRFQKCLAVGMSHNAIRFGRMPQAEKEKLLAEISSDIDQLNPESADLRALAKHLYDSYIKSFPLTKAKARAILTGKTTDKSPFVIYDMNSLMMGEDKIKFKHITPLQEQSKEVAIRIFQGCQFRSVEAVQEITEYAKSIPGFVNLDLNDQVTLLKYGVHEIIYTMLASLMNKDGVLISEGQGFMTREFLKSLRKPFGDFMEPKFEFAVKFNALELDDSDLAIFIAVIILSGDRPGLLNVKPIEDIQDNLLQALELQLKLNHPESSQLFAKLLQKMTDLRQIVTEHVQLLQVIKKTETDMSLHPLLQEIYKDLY
Sequence of Peroxisome proliferator-activated receptor gamma/Nuclear receptor coactivator 1 (Q15788 whole entry, further chain): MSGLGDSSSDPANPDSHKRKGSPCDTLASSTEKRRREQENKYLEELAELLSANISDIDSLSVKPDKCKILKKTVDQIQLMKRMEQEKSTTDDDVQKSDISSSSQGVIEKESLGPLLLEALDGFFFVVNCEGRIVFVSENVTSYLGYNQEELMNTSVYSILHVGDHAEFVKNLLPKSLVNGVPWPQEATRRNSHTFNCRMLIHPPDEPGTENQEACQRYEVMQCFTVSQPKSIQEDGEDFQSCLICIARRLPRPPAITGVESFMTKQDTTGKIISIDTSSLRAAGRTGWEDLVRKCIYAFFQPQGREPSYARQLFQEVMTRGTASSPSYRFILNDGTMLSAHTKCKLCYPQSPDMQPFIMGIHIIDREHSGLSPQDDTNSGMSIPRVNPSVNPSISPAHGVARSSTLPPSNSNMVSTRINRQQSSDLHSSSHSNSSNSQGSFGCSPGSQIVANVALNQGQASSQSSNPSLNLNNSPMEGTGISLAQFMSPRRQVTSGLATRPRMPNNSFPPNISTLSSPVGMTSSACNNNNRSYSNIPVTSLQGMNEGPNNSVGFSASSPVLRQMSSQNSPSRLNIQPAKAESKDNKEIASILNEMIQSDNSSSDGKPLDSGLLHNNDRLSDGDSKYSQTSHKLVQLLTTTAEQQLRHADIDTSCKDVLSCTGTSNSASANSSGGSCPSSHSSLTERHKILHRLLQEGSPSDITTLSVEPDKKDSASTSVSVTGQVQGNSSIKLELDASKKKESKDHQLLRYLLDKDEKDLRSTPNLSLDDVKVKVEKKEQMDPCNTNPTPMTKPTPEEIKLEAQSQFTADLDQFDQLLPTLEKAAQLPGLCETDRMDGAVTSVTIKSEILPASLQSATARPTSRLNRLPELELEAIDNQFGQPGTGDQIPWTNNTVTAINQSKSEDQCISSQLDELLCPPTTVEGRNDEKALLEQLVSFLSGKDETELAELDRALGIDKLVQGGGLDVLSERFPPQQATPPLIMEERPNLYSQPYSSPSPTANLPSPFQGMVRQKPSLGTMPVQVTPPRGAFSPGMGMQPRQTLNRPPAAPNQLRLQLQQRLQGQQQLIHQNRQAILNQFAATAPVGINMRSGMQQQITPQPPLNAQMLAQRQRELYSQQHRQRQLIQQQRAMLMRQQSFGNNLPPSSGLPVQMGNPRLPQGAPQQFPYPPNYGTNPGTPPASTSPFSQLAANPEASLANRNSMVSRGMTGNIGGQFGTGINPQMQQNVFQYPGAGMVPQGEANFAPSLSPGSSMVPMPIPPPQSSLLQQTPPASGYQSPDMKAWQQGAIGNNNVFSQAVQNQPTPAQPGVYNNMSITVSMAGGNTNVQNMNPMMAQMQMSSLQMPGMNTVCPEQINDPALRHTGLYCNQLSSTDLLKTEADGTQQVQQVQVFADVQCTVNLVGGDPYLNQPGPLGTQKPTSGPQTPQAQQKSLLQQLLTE

[4] = Vero E6 cell cytotoxicity, dose response, cytotoxicity control for non-replicating M. tuberculosis project, secondary assay (AID 492998); assay type: functional, VeroE6; conditions: Vero C1008
[5] = microbe, parasite or virus in culture; assay type: functional; conditions: Mycobacterium tuberculosis
[6] = THP-1 cell cytotoxicity, dose response, cytotoxicity control for non-replicating M. tuberculosis project (AID 489025); assay type: functional
[7] = cells; assay type: functional
[8] = growth suppression of PTEN-null colon cells, dose response, cell-based, HCT116 PTEN knockout (AID 1047); assay type: functional;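 also: HCT116 colon tumor cells with PTEN knocked out; cells exposed to compound for 60 hours before readout; potency for loss of cell viability measured by luminescence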
[9] = growth suppression of beta-catenin-knockout colon cells, dose response, cell-based, HCT116, human colon tumor (AID 1045); assay type: functional;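 also: HCT116 colon tumor cells with beta catenin knocked out; cells exposed to compound for 60 hours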
[10] = molecular target: SUMO-activating enzyme (Homo sapiens, UniProt Q9UBT2); assay: SUMOylation inhibitor hit validation, confirmation, SUMOylation inhibitor project, biochemical, AlphaScreen (AID 2018); assay type: functional
[11] = molecular target: T1, Mucolipin-3 (Homo sapiens, UniProt Q8TDD5); assay: Dose response cell-based high-throughput screening assay for agonists of the transient receptor potential channel ML3 (TRPML3). [Related pubchem assays: 1526, 1424, 1448 ]; assay type: functional
T1 sequence (Q8TDD5 whole entry): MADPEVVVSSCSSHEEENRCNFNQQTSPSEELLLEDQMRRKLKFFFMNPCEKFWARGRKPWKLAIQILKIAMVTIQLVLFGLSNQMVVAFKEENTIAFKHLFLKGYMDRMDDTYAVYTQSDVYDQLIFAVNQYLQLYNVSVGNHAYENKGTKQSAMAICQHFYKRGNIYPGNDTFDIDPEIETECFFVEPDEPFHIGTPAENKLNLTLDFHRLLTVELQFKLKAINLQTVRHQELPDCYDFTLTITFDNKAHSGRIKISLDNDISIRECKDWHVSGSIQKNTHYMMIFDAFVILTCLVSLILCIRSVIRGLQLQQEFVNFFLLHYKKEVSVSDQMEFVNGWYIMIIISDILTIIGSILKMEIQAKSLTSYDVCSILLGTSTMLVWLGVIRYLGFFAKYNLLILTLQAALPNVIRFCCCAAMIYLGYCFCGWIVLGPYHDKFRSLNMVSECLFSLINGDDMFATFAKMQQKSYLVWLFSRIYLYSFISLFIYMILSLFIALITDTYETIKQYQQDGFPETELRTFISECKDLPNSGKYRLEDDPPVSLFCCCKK

[12] = molecular target: Ion channel NompC (Danio rerio, UniProt Q7T1G6); assay: Fluorescence counterscreen assay for TRPML3 agonists: dose response cell-based high-throughput screening assay to identify agonists of the transient receptor potential channel N1 (TRPN1). [Related pubchem assays: 1526, 1424, 1448 ]; assay type: functional
[13] = molecular target: Cytochrome P450 3A4 (Homo sapiens, UniProt P08684);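 also: CYP3A4 tested as one member of a cytochrome P450 panel screen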
[14] = molecular target: Cytochrome P450 2C19 (Homo sapiens, UniProt P33261); assay: Cytochrome panel assay with activity outcomes. Panel member name: p450-cyp2c19 Compounds with AC50 equal or less than 10 uM are considered active; assay type: functional; conditions: read-out: AC50
[15] = molecular target: Cytochrome P450 2C9 (Homo sapiens, UniProt P11712)
Sequence of Cytochrome P450 2C9 (P11712 whole entry): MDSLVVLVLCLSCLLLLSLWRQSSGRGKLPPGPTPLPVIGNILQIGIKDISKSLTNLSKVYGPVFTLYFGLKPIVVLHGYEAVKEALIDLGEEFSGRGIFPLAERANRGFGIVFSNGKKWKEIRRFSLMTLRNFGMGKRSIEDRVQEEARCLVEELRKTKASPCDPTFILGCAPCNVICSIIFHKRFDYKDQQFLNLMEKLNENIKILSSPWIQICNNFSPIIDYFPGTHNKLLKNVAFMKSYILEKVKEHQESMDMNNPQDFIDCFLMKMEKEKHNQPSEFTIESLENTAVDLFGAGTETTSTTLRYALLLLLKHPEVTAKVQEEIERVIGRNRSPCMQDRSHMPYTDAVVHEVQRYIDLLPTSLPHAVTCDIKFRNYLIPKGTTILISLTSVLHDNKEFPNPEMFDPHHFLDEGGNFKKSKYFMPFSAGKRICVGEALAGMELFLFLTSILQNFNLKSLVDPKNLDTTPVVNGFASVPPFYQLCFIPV

[16] = inhibitors of intracellular T. cruzi replication, confirmation, NIH3T3 host cells, beta-gal luminescence (AID 2044); assay type: functional, cell-based;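 also: intracellular parasites grown in NIH/3T3 mouse fibroblasts as host cells; luminescent beta-galactosidase reporter signal from transgenic T. cruzi replicating inside host cells; inhibitors lower the luminescence signal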
[17] = cytotoxicity toward NIH3T3 fibroblasts, dose response, counter-screen, cell-based, ATP luminescence, mouse fibroblasts (AID 2010); assay type: functional;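 also: cells exposed to compound for about 90 hours before reading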
[18] = tested on: Streptococcus; assay: Group A Streptococcus viability loss, dose response, counter-screen for streptokinase expression inhibitor project, luminescence, BacTiterGlo (AID 1915); assay type: functional, organism-based;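 also: potency for reduction of bacterial viability or growth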
[19] = tested on: BJ; assay: cytotoxicity toward BJ-TERT-LT-ST fibroblasts, dose response, cell-based, RAS-independent, luminescence (AID 1935); assay type: functional; conditions: Homo sapiens;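 also: BJ fibroblasts immortalized with TERT plus LT and ST oncogenes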
[20] = tested on: INS1; assay: beta cell apoptosis inhibitors, cytokine rescue, dose response, luminescence, retest (AID 449756); assay type: functional, cell-based; conditions: Rattus norvegicus;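 also: cell death triggered by IL-1 beta plus TNF-alpha plus IFN-gamma mixture; protective hits raise ATP signal compared with cytokine alone wells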
[21] = tested on: HEK293; assay: cells; assay type: functional, cell-based; conditions: Homo sapiens
[22] = tested on: HEK293; assay: NOD2 signaling inhibitors in MDP-stimulated cells, cell-based, uHTS, luminescence (AID 2001); assay type: functional; conditions: Homo sapiens
[23] = tested on: HEK293; assay: NOD1 signaling inhibitors, primary screen, cell-based, luminescence, uHTS (AID 1578); assay type: functional; conditions: Homo sapiens
[24] = tested on: Streptococcus sp. 'group A'; assay: growth inhibition of control SK(-) GAS strain, dose response, counter-screen for streptokinase expression inhibitor project, luminescence, kanamycin, BacTiterGlo, confirmation (AID 1900); assay type: functional, organism-based
[25] = tested on: HEK293; assay: cells; assay type: functional, cell-based; conditions: Homo sapiens; remark: listed apart in the source
[26] = cytotoxicity toward DRD oncogenic fibroblasts, dose response, cell-based, non-viral oncogenic, luminescence (AID 1934); assay type: functional; conditions: Homo sapiens
[27] = tested on: BJ; assay: cytotoxicity toward BJ-TERT fibroblasts, dose response, cell-based, RAS-independent, luminescence (AID 1933); assay type: functional; conditions: Homo sapiens
[28] = NIH-3T3 fibroblast cytotoxicity, dose response, cytotoxicity control, cell-based, fluorescence, Alamar Blue, secondary assay (AID 2327); assay type: functional;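 also: NIH-3T3 mouse fibroblasts cultured with fluconazole at 8 µg/mL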
[29] = molecular target: Induced myeloid leukemia cell differentiation protein Mcl-1 (Homo sapiens, UniProt Q07820); assay type: functional
[30] = tested on: BJ; assay: cells; assay type: functional, cell-based; conditions: Homo sapiens
[31] = C. albicans growth with fluconazole, confirmation, fluorescence, retest (AID 2467); assay type: functional, cell-based
[32] = molecular target: T2, Ubiquitin-conjugating enzyme E2 N (Homo sapiens, UniProt P61088); assay type: functional
T2 sequence (P61088 whole entry): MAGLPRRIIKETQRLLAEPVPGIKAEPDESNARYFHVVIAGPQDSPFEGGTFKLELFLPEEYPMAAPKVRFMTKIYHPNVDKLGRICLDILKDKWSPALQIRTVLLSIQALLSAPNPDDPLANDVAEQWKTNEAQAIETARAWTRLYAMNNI

[33] = tested on: Vero; assay: cells; assay type: functional; conditions: Chlorocebus sabaeus
[34] = molecular target: T2, Ubiquitin-conjugating enzyme E2 N; assay type: functional; remark: listed apart in the source
[35] = molecular target: T3, Bcl-2-related protein A1 (Mus musculus, UniProt Q07440); assay type: functional;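 also: confirmatory dose–response counterscreen on Bfl-1, used to check hits from a UBC13 polyubiquitin inhibitor campaign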
T3 sequence (Q07440 whole entry): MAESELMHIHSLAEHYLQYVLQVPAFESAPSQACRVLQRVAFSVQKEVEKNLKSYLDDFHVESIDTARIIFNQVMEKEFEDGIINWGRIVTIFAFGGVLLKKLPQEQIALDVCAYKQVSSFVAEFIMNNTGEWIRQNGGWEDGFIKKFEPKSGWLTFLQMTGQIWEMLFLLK

[36] = molecular target: DNA dC->dU-editing enzyme APOBEC-3A (Homo sapiens, UniProt P31941); assay: APOBEC3A DNA deaminase inhibitors, dose response, biochemical (AID 504722); assay type: functional
Sequence of DNA dC->dU-editing enzyme APOBEC-3A (P31941 whole entry): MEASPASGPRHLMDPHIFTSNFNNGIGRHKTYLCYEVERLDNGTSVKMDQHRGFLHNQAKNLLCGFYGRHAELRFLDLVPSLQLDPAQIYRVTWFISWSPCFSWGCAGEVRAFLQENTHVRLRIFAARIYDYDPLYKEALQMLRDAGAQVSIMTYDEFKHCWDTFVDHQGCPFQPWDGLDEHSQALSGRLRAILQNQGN

[37] = molecular target: DNA dC->dU-editing enzyme APOBEC-3G (Homo sapiens, UniProt Q9HC16); assay: Dose Response confirmation of small molecule APOBEC3G DNA Deaminase Inhibitors via a fluorescence-based single-stranded DNA deaminase assay. [Related pubchem assays (depositor defined):AID493012, AID493028]; assay type: functional
Sequence of DNA dC->dU-editing enzyme APOBEC-3G (Q9HC16 whole entry): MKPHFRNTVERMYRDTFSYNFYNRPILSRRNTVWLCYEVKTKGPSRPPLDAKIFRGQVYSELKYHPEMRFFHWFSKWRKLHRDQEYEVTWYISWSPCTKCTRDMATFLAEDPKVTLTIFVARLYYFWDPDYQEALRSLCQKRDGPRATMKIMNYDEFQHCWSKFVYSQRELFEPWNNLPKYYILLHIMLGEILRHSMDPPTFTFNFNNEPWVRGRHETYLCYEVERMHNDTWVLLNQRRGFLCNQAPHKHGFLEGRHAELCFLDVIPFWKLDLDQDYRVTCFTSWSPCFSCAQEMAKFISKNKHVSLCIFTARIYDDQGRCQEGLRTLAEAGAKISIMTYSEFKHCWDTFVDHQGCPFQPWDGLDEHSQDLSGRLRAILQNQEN

[38] = cells

Sequence of Peroxisome proliferator-activated receptor gamma/Nuclear receptor coactivator 3 (P37231 whole entry): as the sequence (P37231 whole entry) above
Sequence of Peroxisome proliferator-activated receptor gamma/Nuclear receptor coactivator 3 (Q9Y6Q9 whole entry, further chain): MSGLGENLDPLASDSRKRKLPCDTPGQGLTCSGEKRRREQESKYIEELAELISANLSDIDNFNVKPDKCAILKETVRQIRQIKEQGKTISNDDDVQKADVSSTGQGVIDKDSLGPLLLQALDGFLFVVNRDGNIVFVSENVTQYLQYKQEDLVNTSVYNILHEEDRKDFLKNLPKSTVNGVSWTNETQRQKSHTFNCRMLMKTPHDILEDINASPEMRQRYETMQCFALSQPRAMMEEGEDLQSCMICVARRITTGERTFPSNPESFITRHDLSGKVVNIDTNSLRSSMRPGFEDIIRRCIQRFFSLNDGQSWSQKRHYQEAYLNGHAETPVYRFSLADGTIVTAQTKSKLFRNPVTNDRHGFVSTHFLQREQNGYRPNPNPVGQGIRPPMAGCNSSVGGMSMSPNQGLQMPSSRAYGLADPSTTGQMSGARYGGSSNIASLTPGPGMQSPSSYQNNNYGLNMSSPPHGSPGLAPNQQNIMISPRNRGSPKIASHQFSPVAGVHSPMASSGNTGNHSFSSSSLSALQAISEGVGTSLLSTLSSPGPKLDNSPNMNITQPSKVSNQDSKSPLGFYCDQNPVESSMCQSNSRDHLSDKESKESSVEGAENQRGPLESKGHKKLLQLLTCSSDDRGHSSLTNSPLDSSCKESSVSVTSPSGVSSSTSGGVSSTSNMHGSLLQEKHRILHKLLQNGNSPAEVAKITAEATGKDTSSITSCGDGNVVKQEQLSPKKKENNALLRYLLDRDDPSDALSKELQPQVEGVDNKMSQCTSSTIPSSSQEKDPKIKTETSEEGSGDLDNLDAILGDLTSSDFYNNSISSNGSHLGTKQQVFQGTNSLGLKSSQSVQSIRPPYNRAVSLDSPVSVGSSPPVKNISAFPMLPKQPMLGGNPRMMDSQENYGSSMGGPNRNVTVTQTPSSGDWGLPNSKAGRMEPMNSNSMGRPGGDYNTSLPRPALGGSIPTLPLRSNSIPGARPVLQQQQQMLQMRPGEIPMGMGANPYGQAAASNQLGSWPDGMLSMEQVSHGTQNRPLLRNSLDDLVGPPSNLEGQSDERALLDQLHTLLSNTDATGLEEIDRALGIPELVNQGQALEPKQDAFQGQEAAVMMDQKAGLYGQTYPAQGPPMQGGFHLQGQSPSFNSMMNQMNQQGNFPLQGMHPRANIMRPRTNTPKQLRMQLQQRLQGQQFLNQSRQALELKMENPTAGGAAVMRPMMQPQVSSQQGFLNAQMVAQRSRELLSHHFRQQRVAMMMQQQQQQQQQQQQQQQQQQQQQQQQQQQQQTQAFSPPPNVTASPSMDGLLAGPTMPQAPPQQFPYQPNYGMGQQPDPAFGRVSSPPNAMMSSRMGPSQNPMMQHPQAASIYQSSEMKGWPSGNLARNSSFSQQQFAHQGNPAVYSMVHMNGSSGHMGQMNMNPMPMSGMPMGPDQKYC

## Cc1ccc(-c2csc(NC(=O)c3cc([N+](=O)[O-])ccc3N3CCOCC3)n2)cc1
[1]
  EC50: > 79.4 µM (not active)
[2]
  EC50: > 79.4 µM (not active)
[3]
  EC50: > 79.4 µM (not active)

## Oc1nc2ccccc2c2oc(CCl)nc12
[4]
  CC50: 7.46 µM (active)
[5]
  CC50: 12.9 µM (active)
[6]
  CC50: 20.1 µM (active)
[7]
  IC50: 3.25 µM (active)

## COC(=O)c1cn(NC(=O)c2cnccn2)c(=O)c2ccccc12
[4]
  CC50: 16.2 µM (active)
[6]
  CC50: 24.2 µM (active)
[7]
  IC50: 9.07 µM (active)
[8]
  EC50: 9.08 µM (active)
[9]
  EC50: 8.3 µM (active)

## COc1ccc(/C=C(\C#N)C(=O)OCC(=O)NCc2ccccc2Cl)cc1
[10]
  IC50: 42.3 µM (active)

## CCc1nnc(NC(=O)COc2ccc(N(C)S(=O)(=O)c3ccc(C)cc3)cc2)s1
[11]
  EC50: 3.27 µM (active)
[12]
  EC50: > 29.9 µM (not active)

## COc1ccc(-c2nnc(-c3ccc(OCC(C)C)cc3)o2)cc1
[13]
  AC50: inconclusive
[14]
  AC50: 7.08 µM (inconclusive)
[15]
  AC50: 20 µM (inconclusive)

## Cn1c(=O)c(Oc2cc(Cl)cc(Cl)c2)nc2ccccc21
[1]
  EC50: 28.8 µM (not active)
[2]
  EC50: 21.1 µM (not active)
[3]
  EC50: 24.5 µM (not active)

## Cc1ccccc1OCC(=O)Nc1cc(S(=O)(=O)N2CCCCC2)ccc1N1CCN(C)CC1
[11]
  EC50: 5.43 µM (active)
[12]
  EC50: > 29.9 µM (not active)
[16]
  EC50: 0.634 µM (active)
[17]
  EC50: > 60 µM (not active)

## Nc1nc(N)c2cc(Sc3ccc4ccccc4c3)ccc2n1
[18]
  EC50: 2.83 µM (active)
[19]
  EC50: > 150 µM (inconclusive)
[20]
  AC50: 7.99 µM (active)
[21]
  IC50: 11.5 µM (active)
[22]
  IC50: 5.21 µM (active)
[23]
  EC50: > 20 µM (inactive)
[24]
  EC50: 0.148 µM (active)
[25]
  IC50: > 20 µM (inactive)
[26]
  EC50: 2.96 µM (active)
[27]
  EC50: 9.21 µM (active)
[28]
  EC50: 5.4 µM (inconclusive)
[29]
  IC50: 3.67 µM (active)
[30]
  EC50: 2.06 µM (active)
[31]
  EC50: 1.38 µM (active)
[32]
  IC50: > 20 µM (inactive)
[33]
  CC50: 0.8 µM (active)

## O=C(NCCCN1CCCC1)c1ccc(Cn2c(=S)[nH]c3ccc(Br)cc3c2=O)cc1
[34]
  IC50: > 20 µM (inactive)
[35]
  IC50: > 20 µM (inactive)
[32]
  IC50: 16.7 µM (active)

## Cc1ccc(NC(=O)CC(=O)c2ccc([N+](=O)[O-])cc2)cc1S(=O)(=O)Nc1cccc(Cl)c1
[21]
  IC50: 7.05 µM (active)
[22]
  IC50: 9.19 µM (active)
[23]
  EC50: 9.53 µM (active)
[25]
  IC50: > 20 µM (inactive)

## CCOC(=O)C1Cc2c([nH]c3ccccc23)CN1.Cl (configuration not stated)
[13]
  AC50: inconclusive
[15]
  AC50: 17.8 µM (inconclusive)

## Cc1ccc(Sc2ccc(/C=C3/C(=O)NN(c4ccccc4)C3=O)o2)cc1
[21]
  IC50: 7.56 µM (active)
[5]
  CC50: > 40 µM (active)
[22]
  IC50: 18.2 µM (inactive)
[23]
  EC50: > 20 µM (inactive)
[7]
  IC50: 18.7 µM (active)
[25]
  IC50: > 20 µM (inactive)

## O=c1[nH]c(SCc2n[nH]c(=S)n2-c2ccccc2)nc2ccccc12
[36]
  IC50: > 100 µM (inactive)
[37]
  IC50: 3.8 µM (active)

## CC(C)n1c(SCC(=O)NCc2ccco2)nc2c1c(=O)n(C)c(=O)n2C
[1]
  EC50: > 79.4 µM (not active)
[2]
  EC50: > 79.4 µM (not active)
[3]
  EC50: > 79.4 µM (not active)

## N#Cc1cccc(NC(=O)N2CC3(CCN(C(=O)c4cccc(F)c4)CC3)C2)c1
[13]
  AC50: inconclusive

## Cc1cc(/C=C2\C(=O)NN(c3ccccc3)C2=O)c(C)n1-c1ccccc1O
[10]
  IC50: 40.7 µM (active)

## Cc1cc(C)c2[nH]c(O)c(N=NC(S)=NCC3CCCO3)c2c1 (configuration not stated)
[34]
  IC50: 0.509 µM (active)
[35]
  IC50: > 20 µM (inactive)
[32]
  IC50: 10.2 µM (active)

## CN(C)S(=O)(=O)c1cc([N+](=O)[O-])ccc1N1CCCCCC1
[11]
  EC50: 10.1 µM (not active)
[12]
  EC50: > 29.9 µM (not active)
[15]
  AC50: 11.2 µM (inconclusive)

## COc1cc(-c2n[nH]c(=S)n2-c2ccc(C)cc2)cc(OC)c1OC
[36]
  IC50: > 100 µM (inactive)
[37]
  IC50: 3.38 µM (active)

## Cn1c(=O)[nH]c(=O)c2c1nc(CN1CCOCC1)n2Cc1ccccc1
[13]
  AC50: inconclusive

## Sc1nnc(-c2ccncc2)n1/N=C/c1ccccc1Cl
[36]
  IC50: > 100 µM (inactive)
[37]
  IC50: 3.46 µM (active)

## COc1ccc(/C=N/n2c(S)nnc2-c2[nH]nc3c2CCC3)cc1
[36]
  IC50: > 100 µM (inactive)
[37]
  IC50: 3.61 µM (active)

## Cc1cc(C(=O)N/N=C/c2ccc(-c3ccc(C)c(Cl)c3)o2)[nH]n1
[10]
  IC50: 45.5 µM (active)

## COc1cccc(Nc2nc(NCC3CCCO3)c3ccccc3n2)c1 (configuration not stated)
[16]
  EC50: < 0.1 µM (active)
[8]
  EC50: 7.57 µM (active)
[9]
  EC50: 7.05 µM (active)
[17]
  EC50: > 30 µM (not active)
[38]
  EC50: 0.443 µM (active)
